# Legend:
# mGAT4 [1] = target: T1, mGAT4 (Mus musculus, UniProt P31650); assay: [^3H]GABA uptake assay, HEK293 cells expressing mGAT4; type: cell-based; details: [^3H]GABA uptake; pIC50±SEM
# T1 construct: expressed in transfected cells; host or cells: HEK293
# T1 sequence (P31650 1-627): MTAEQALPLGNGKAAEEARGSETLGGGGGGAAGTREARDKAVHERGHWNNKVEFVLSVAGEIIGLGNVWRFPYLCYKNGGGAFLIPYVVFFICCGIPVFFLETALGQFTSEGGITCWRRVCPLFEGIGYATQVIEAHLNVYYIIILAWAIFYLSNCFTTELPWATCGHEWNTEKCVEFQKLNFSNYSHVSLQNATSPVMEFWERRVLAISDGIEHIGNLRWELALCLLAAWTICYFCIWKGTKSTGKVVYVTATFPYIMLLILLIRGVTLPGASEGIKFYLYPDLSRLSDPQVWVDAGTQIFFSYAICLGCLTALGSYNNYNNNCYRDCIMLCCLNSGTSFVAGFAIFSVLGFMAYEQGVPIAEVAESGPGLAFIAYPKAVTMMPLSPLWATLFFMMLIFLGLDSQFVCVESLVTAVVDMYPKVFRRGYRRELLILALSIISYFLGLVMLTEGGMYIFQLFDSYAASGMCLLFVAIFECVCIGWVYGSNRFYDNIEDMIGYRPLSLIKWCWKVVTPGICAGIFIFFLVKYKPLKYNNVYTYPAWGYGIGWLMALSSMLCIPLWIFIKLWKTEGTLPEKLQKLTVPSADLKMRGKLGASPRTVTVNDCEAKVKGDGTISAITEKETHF
# Procedure, shortened: (§1)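 HEK293 cells expressing mouse GATs preincubated 25 min at 37 °C with compound in Krebs buffer pH 7.2, then [3H]GABA added: 8 nM plus 32 nM unlabeled for 4 min (mGAT1/3/4), 20 nM plus 20 nM for 10 min (mGAT2). Filtration, scintillation counting; nonspecific uptake with 10 mM (mGAT1/3/4) or 100 mM GABA (mGAT2); pIC50.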
# mGAT4 [2] = target: T1, mGAT4; assay: GABA uptake inhibition at mGAT4 with varied preincubation time; type: cell-based
# mGAT1 [3] = target: T2, mGAT1 (Mus musculus, UniProt P31648); assay: [^3H]GABA uptake assay, HEK293 cells expressing mGAT1; type: cell-based; details: [^3H]GABA uptake; pIC50±SEM
# T2 construct: expressed in transfected cells; host or cells: HEK293
# Procedure, shortened: as §1
# mGAT1 [4] = target: T2, mGAT1; assay: MS Binding Assay with NO711 as native MS marker; details: MS Binding Assay, NO711 marker; pKi±SEM; read-out: pK i mGAT1 (converted)
# Procedure, shortened: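 Competitive MS binding using membranes from HEK293 cells stably expressing mGAT1, with 10 nM unlabeled NO711 as marker and compounds at 7 concentrations. Nonspecific binding defined with 100 mM GABA. Bound NO711 eluted after filtration and quantified by LC-ESI-MS/MS against [2H10]NO711; Ki derived.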
compound,measurement,setting,value
"COc1ccc(C(OCCN2CCCC(C(=O)O)C2)(c2ccc(C=O)cc2)c2ccc(OC)cc2)cc1 (racemic) [5 a, rac‐ 1‐{2‐[(4‐Formylphenyl)bis(4‐methoxyphenyl)methoxy]ethyl}piper‐idine‐3‐carboxylic acid]",IC50,mGAT4 [1],1700 nM
same,IC50,"mGAT4 [2]; Experiment No. 1, preincubation time 10 min, read-out: pIC50 mGAT4 (converted)",1350 nM
same,IC50,"mGAT4 [2]; Experiment No. 1, preincubation time 25 min, read-out: pIC50 mGAT4 (converted)",1050 nM
same,IC50,"mGAT4 [2]; Experiment No. 1, preincubation time 60 min, read-out: pIC50 mGAT4 (converted)",912 nM
same,IC50,"mGAT4 [2]; Experiment No. 2, preincubation time 10 min, read-out: pIC50 mGAT4 (converted)",2690 nM
same,IC50,"mGAT4 [2]; Experiment No. 2, preincubation time 25 min, read-out: pIC50 mGAT4 (converted)",1860 nM
same,IC50,"mGAT4 [2]; Experiment No. 2, preincubation time 60 min, read-out: pIC50 mGAT4 (converted)",1230 nM
same,IC50,"mGAT4 [2]; Experiment No. 3, preincubation time 10 min, read-out: pIC50 mGAT4 (converted)",2690 nM
same,IC50,"mGAT4 [2]; Experiment No. 3, preincubation time 25 min, read-out: pIC50 mGAT4 (converted)",1480 nM
same,IC50,"mGAT4 [2]; Experiment No. 3, preincubation time 60 min, read-out: pIC50 mGAT4 (converted)",1660 nM
same,IC50,"mGAT4 [2]; Experiment No. 4, preincubation time 25 min, read-out: pIC50 mGAT4 (converted)",2000 nM
same,IC50,"mGAT4 [2]; Experiment No. 4, preincubation time 60 min, read-out: pIC50 mGAT4 (converted)",617 nM
same,IC50,"mGAT4 [2]; Experiment No. 5, preincubation time 25 min, read-out: pIC50 mGAT4 (converted)",1580 nM
same,IC50,"mGAT4 [2]; Experiment No. 5, preincubation time 60 min, read-out: pIC50 mGAT4 (converted)",1260 nM
same,IC50,"mGAT4 [2]; Experiment No. 6, preincubation time 25 min, read-out: pIC50 mGAT4 (converted)",1380 nM
same,IC50,"mGAT4 [2]; Experiment No. 6, preincubation time 60 min, read-out: pIC50 mGAT4 (converted)",1020 nM
same,Normalized pIC50 mGAT4,"mGAT4 [2]; preincubation time 10 min, experiments 1-3, relative to 25 min = 100.00",97.98
same,IC50,"mGAT4 [2]; preincubation time 10 min, experiments 1-3, read-out: Average pIC50 mGAT4 (converted)",2140 nM
same,Normalized pIC50 mGAT4,"mGAT4 [2]; preincubation time 25 min, experiments 1-3 (reference)",100.00
same,IC50,"mGAT4 [2]; preincubation time 25 min, experiments 1-3, read-out: Average pIC50 mGAT4 (converted)",1410 nM
same,Normalized pIC50 mGAT4,"mGAT4 [2]; preincubation time 25 min, experiments 4-6 (reference)",100.00
same,IC50,"mGAT4 [2]; preincubation time 25 min, experiments 4-6, read-out: Average pIC50 mGAT4 (converted)",1620 nM
same,Normalized pIC50 mGAT4,"mGAT4 [2]; preincubation time 60 min, experiments 1-3, relative to 25 min = 100.00",101.08
same,IC50,"mGAT4 [2]; preincubation time 60 min, experiments 1-3, read-out: Average pIC50 mGAT4 (converted)",1230 nM
same,Normalized pIC50 mGAT4,"mGAT4 [2]; preincubation time 60 min, experiments 4-6, relative to 25 min = 100.00",104.26
same,IC50,"mGAT4 [2]; preincubation time 60 min, experiments 4-6, read-out: Average pIC50 mGAT4 (converted)",933 nM
same,IC50,mGAT1 [3],67600 nM
same,Ki,mGAT1 [4],38900 nM
